According to PubChem BioAssay (NCI):
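Grown in 96-well plates, cells were treated for 48 hours with each compound at five concentrations. Insufficient inhibition: endpoint recorded as highest concentration tested. GI50 marks 50% less growth. TGI denotes the concentration required for complete inhibition of growth.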

What was measured:
Assay in all cases: DTP human tumour cell line panel, 48 h
PC-3 prostate = system: PC-3 prostate
OVCAR-8 ovarian = system: OVCAR-8 ovarian
786-0 renal = system: 786-0 renal
SK-MEL-28 melanoma = system: SK-MEL-28 melanoma
RPMI-8226 leukemia = system: RPMI-8226 leukemia
UACC-257 melanoma = system: UACC-257 melanoma
SK-MEL-5 melanoma = system: SK-MEL-5 melanoma
SNB-75 CNS = system: SNB-75 CNS
ACHN renal = system: ACHN renal
HOP-92 NSCLC = system: HOP-92 NSCLC
HOP-62 NSCLC = system: HOP-62 NSCLC
OVCAR-5 ovarian = system: OVCAR-5 ovarian
DU-145 prostate = system: DU-145 prostate
IGROV1 ovarian = system: IGROV1 ovarian
SW-620 colon = system: SW-620 colon
SF-539 CNS = system: SF-539 CNS
MCF7 breast = system: MCF7 breast
OVCAR-4 ovarian = system: OVCAR-4 ovarian
A549 NSCLC = system: A549 NSCLC
HT29 colon = system: HT29 colon
MDA-MB-231 breast = system: MDA-MB-231 breast
SR leukemia = system: SR leukemia
M14 melanoma = system: M14 melanoma
HCC-2998 colon = system: HCC-2998 colon
HCT-116 colon = system: HCT-116 colon
T-47D breast = system: T-47D breast
SF-295 CNS = system: SF-295 CNS
NCI-H460 lung = system: NCI-H460 lung
BT-549 breast = system: BT-549 breast
A498 renal = system: A498 renal
NCI-H226 lung = system: NCI-H226 lung
CCRF-CEM leukemia = system: CCRF-CEM leukemia
SK-OV-3 ovarian = system: SK-OV-3 ovarian
SF-268 CNS = system: SF-268 CNS
COLO 205 colon = system: COLO 205 colon
NCI-H23 lung = system: NCI-H23 lung
HS 578T breast = system: HS 578T breast
HL-60(TB) leukemia = system: HL-60(TB) leukemia
MALME-3M melanoma = system: MALME-3M melanoma
SNB-19 CNS = system: SNB-19 CNS
LOX IMVI melanoma = system: LOX IMVI melanoma
UO-31 renal = system: UO-31 renal
SN12C renal = system: SN12C renal
OVCAR-3 ovarian = system: OVCAR-3 ovarian
TK-10 renal = system: TK-10 renal
SK-MEL-2 melanoma = system: SK-MEL-2 melanoma
UACC-62 melanoma = system: UACC-62 melanoma
NCI/ADR-RES ovarian = system: NCI/ADR-RES ovarian
MDA-MB-435 = system: MDA-MB-435
MOLT-4 leukemia = system: MOLT-4 leukemia
K-562 leukemia = system: K-562 leukemia
EKVX NSCLC = system: EKVX NSCLC
U251 CNS = system: U251 CNS
HCT-15 colon = system: HCT-15 colon
NCI-H522 lung = system: NCI-H522 lung
CAKI-1 renal = system: CAKI-1 renal
KM12 colon = system: KM12 colon

Structure (SMILES): Cc1cc(Cl)ccc1Nc1nc(C(F)(F)F)ccc1C(=O)N/N=C/c1ccc(F)cc1
- GI50 (PC-3 prostate): 1850 nM
- TGI (PC-3 prostate): 8640 nM
- GI50 (OVCAR-8 ovarian): 1480 nM
- TGI (OVCAR-8 ovarian): 6330 nM
- GI50 (786-0 renal): 1450 nM
- TGI (786-0 renal): 5930 nM
- GI50 (SK-MEL-28 melanoma): 2010 nM
- TGI (SK-MEL-28 melanoma): 10600 nM
- GI50 (RPMI-8226 leukemia): 1790 nM
- TGI (RPMI-8226 leukemia): 7370 nM
- GI50 (UACC-257 melanoma): 1330 nM
- TGI (UACC-257 melanoma): 3670 nM
- GI50 (SK-MEL-5 melanoma): 1580 nM
- TGI (SK-MEL-5 melanoma): 3130 nM
- GI50 (SNB-75 CNS): 1550 nM
- TGI (SNB-75 CNS): 9450 nM
- GI50 (ACHN renal): 2480 nM
- TGI (ACHN renal): 10800 nM
- GI50 (HOP-92 NSCLC): 1750 nM
- TGI (HOP-92 NSCLC): 6140 nM
- GI50 (HOP-62 NSCLC): 1680 nM
- TGI (HOP-62 NSCLC): 6650 nM
- GI50 (OVCAR-5 ovarian): 2450 nM
- TGI (OVCAR-5 ovarian): 15100 nM
- GI50 (DU-145 prostate): 3460 nM
- TGI (DU-145 prostate): 13800 nM
- GI50 (IGROV1 ovarian): 2110 nM
- TGI (IGROV1 ovarian): 13900 nM
- GI50 (SW-620 colon): 2060 nM
- TGI (SW-620 colon): 13500 nM
- GI50 (SF-539 CNS): 1960 nM
- TGI (SF-539 CNS): 5670 nM
- GI50 (MCF7 breast): 2640 nM
- TGI (MCF7 breast): 10500 nM
- GI50 (OVCAR-4 ovarian): 513 nM
- TGI (OVCAR-4 ovarian): 12900 nM
- GI50 (A549 NSCLC): 2080 nM
- TGI (A549 NSCLC): 6010 nM
- GI50 (HT29 colon): 2830 nM
- TGI (HT29 colon): 10300 nM
- GI50 (MDA-MB-231 breast): 1470 nM
- TGI (MDA-MB-231 breast): 5940 nM
- GI50 (SR leukemia): 863 nM
- TGI (SR leukemia): 3620 nM
- GI50 (M14 melanoma): 1840 nM
- TGI (M14 melanoma): 9640 nM
- GI50 (HCC-2998 colon): 1100 nM
- TGI (HCC-2998 colon): 4540 nM
- GI50 (HCT-116 colon): 1400 nM
- TGI (HCT-116 colon): 11100 nM
- GI50 (T-47D breast): 1600 nM
- TGI (T-47D breast): 7130 nM
- GI50 (SF-295 CNS): 710 nM
- TGI (SF-295 CNS): 3630 nM
- GI50 (NCI-H460 lung): 1950 nM
- TGI (NCI-H460 lung): 6040 nM
- GI50 (BT-549 breast): 1060 nM
- TGI (BT-549 breast): 3510 nM
- GI50 (A498 renal): 1480 nM
- TGI (A498 renal): 5920 nM
- GI50 (NCI-H226 lung): 2360 nM
- TGI (NCI-H226 lung): 7630 nM
- GI50 (CCRF-CEM leukemia): 528 nM
- TGI (CCRF-CEM leukemia): 5900 nM
- GI50 (SK-OV-3 ovarian): 1340 nM
- TGI (SK-OV-3 ovarian): 6580 nM
- GI50 (SF-268 CNS): 1140 nM
- TGI (SF-268 CNS): 5640 nM
- GI50 (COLO 205 colon): 1610 nM
- TGI (COLO 205 colon): 3640 nM
- GI50 (NCI-H23 lung): 2570 nM
- TGI (NCI-H23 lung): 11500 nM
- GI50 (HS 578T breast): 2230 nM
- TGI (HS 578T breast): 11700 nM
- GI50 (HL-60(TB) leukemia): 1770 nM
- TGI (HL-60(TB) leukemia): 5010 nM
- GI50 (MALME-3M melanoma): 1110 nM
- TGI (MALME-3M melanoma): 4700 nM
- GI50 (SNB-19 CNS): 2110 nM
- TGI (SNB-19 CNS): 12000 nM
- GI50 (LOX IMVI melanoma): 1340 nM
- TGI (LOX IMVI melanoma): 10600 nM
- GI50 (UO-31 renal): 1710 nM
- TGI (UO-31 renal): 5350 nM
- GI50 (SN12C renal): 2560 nM
- TGI (SN12C renal): 11400 nM
- GI50 (OVCAR-3 ovarian): 491 nM
- TGI (OVCAR-3 ovarian): 2240 nM
- GI50 (TK-10 renal): 1700 nM
- TGI (TK-10 renal): 7600 nM
- GI50 (SK-MEL-2 melanoma): 1840 nM
- TGI (SK-MEL-2 melanoma): 5820 nM
- GI50 (UACC-62 melanoma): 1790 nM
- TGI (UACC-62 melanoma): 3820 nM
- GI50 (NCI/ADR-RES ovarian): 2270 nM
- TGI (NCI/ADR-RES ovarian): 19200 nM
- GI50 (MDA-MB-435): 2780 nM
- TGI (MDA-MB-435): 11000 nM
- GI50 (MOLT-4 leukemia): 1600 nM
- TGI (MOLT-4 leukemia): 4980 nM
- GI50 (K-562 leukemia): 1890 nM
- TGI (K-562 leukemia): 6050 nM
- GI50 (EKVX NSCLC): 1130 nM
- TGI (EKVX NSCLC): 8170 nM
- GI50 (U251 CNS): 1520 nM
- TGI (U251 CNS): 10600 nM
- GI50 (HCT-15 colon): 621 nM
- TGI (HCT-15 colon): 12400 nM
- GI50 (NCI-H522 lung): 2400 nM
- TGI (NCI-H522 lung): 8120 nM
- GI50 (CAKI-1 renal): 1820 nM
- TGI (CAKI-1 renal): 6550 nM
- GI50 (KM12 colon): 1990 nM
- TGI (KM12 colon): 5330 nM
